{
  "source": "patent US20240382600A1",
  "about": "“BIFUNCTIONAL DEGRADERS COMPRISING A TEAD BINDER” (Novartis AG, priority 2021, published 2024)",
  "key": {"[1]": {"target": "Avi-humanTEAD4^217-434 / Cy5 labeled humanYAP^60-100 (Homo sapiens (Human), UniProt Q15561)", "sequence (Q15561 217-434)": "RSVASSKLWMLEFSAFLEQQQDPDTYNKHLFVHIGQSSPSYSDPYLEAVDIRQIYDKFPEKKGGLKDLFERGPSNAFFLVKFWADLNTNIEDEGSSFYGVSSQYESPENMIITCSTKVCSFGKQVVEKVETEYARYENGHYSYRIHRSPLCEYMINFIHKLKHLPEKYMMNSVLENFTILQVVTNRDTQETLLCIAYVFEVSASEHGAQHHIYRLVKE", "test": "In-vitro biochemical TR-FRET assay (TEAD4/YAP)", "format": "binding", "conditions": "1 h at room temperature"}, "[2]": {"tested_on": "YAP-dependent transcription in NCI-H2052 Tet-On shYAP_2371 pLenti6 MCAT_Luc cells", "test": "YAP reporter gene activity assay (MCAT-Luc), NCI-H2052", "format": "cell-based", "conditions": "Homo sapiens, 24 hrs"}, "[3]": {"tested_on": "YAP-dependent transcription in SF268-MCAT_Luc_dox-i-shYAPLevy (Clone 13) cells", "test": "YAP reporter gene activity assay (MCAT-Luc), SF268", "format": "cell-based", "conditions": "Homo sapiens, SF-268; SF268 MCAT_Luc, 24 hrs"}, "[4]": {"tested_on": "MKN-45/Ubc-luc cells (unspecific inhibition of luciferase expression or activity)", "test": "Reporter gene assay specificity control (Ubc-Luc), MKN-45", "format": "cell-based", "conditions": "Homo sapiens; MKN-45/Ubc-luc specificity control, 24 hrs", "procedure,_shortened": "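MKN-45 cells stably carrying a ubiquitin C promoter–firefly luciferase construct, treated the day after seeding with eleven 2-fold compound dilutions (0.1% DMSO final) for 24 hrs at 37° C. Luminescence read 5 min after Steady Glo addition; cell-free background subtracted, as a control for nonspecific luciferase inhibition.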"}, "[5]": {"tested_on": "NCI-H2052 Tet-On shYAP_2371 pLenti6 MCAT_Luc cells", "test": "Proliferation assay (resazurin/AlamarBlue), NCI-H2052", "format": "cell-based", "conditions": "Homo sapiens; NCI-H2052, 72 hours"}, "[6]": {"tested_on": "SF268-MCAT_Luc_dox-i-shYAPLevy (Clone 13) cells", "test": "Proliferation assay (resazurin/AlamarBlue), SF268", "format": "cell-based", "conditions": "Homo sapiens, SF-268; SF268, 72 hours"}, "MKN-45/Ubc-luc cells": {"tested_on": "MKN-45/Ubc-luc cells", "test": "Proliferation assay (resazurin/AlamarBlue), MKN-45", "format": "cell-based", "conditions": "Homo sapiens; MKN-45, 72 hours", "procedure,_shortened": "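MKN-45 cells carrying constitutive Ubc-driven luciferase reporter, treated the day after seeding with eleven 2-fold dilutions (0.1% DMSO) for 72 h at 37 °C. Viability by resazurin, referenced to day-0 plate; GI50 from % growth (100 none, 0 stasis, −100 kill) and residual viability at top concentration.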"}, "[7]": {"target": "TEAD1-GFP in HEK293A cells (Homo sapiens (Human), UniProt P28347)", "sequence (P28347 whole entry)": "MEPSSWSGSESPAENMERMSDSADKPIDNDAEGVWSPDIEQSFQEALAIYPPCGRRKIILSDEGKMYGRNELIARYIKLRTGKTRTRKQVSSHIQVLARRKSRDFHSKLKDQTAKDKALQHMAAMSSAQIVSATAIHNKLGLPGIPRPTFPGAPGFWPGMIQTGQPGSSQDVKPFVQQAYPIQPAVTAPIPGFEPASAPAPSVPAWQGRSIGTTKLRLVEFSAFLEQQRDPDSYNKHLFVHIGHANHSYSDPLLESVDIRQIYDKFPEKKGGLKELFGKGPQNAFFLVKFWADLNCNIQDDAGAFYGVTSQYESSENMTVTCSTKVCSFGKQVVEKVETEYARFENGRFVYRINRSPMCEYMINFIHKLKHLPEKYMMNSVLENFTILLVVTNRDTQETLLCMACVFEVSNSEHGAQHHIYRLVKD", "test": "TEAD1 protein abundance flow cytometry assay in HEK293A", "format": "cell-based", "conditions": "HEK293A TEAD1-GFP-CHYSEL-mCherry sensor cells, 24 h, GFP signal by flow cytometry", "procedure,_shortened": "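HEK293A stably expressing bicistronic TEAD1-GFP-CHYSEL-mCherry treated 24 h at 37° C with 10-point 3-fold series from 10 μM (0.1% DMSO), duplicate. Median GFP of 2,500 single cells by flow cytometry, normalized to parental HEK293A (0%) and DMSO (100%); DC50 from concentration-response curves.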"}},
  "data": [
    {"smiles": "COc1ccc(C(N)=O)c(-c2c(Cl)c(F)cc3c2[C@H](C)[C@@](CN[C@H]2CC[C@H](C(=O)N4CCC(CC5CCN(C(=O)COc6ccc(C)c(N7CCC(=O)NC7=O)c6)CC5)CC4)CC2)(c2ccccc2)O3)c1F", "note": "(atropisomer, axis not shown) [Example 21, 2-((2S,3S,4S)-5-chloro-2-((((1r,4S)-4-(4-((1-(2-(3-(2,4-dioxotetrahydropyrimidin-1(2H)-yl)-4-methylphenoxy)acetyl)piperidin-4-yl)methyl)piperidine-1-carbonyl)cyclohexyl)amino)methyl)-6-fluoro-3-methyl-2-phenyl-2,3-dihydrobenzofuran-4-yl)-3-fluoro-4-methoxybenzamide]", "values": [
      {"measurement": "IC50", "setting": "[1]", "value": 1.6, "unit": "nM"},
      {"measurement": "IC50", "setting": "[2]", "value": 1.4, "unit": "nM"},
      {"measurement": "IC50", "setting": "[3]", "value": 0.3, "unit": "nM"},
      {"measurement": "IC50", "setting": "[4]", "value": "> 2000", "unit": "nM"},
      {"measurement": "GI50", "setting": "[5]", "value": 4.3, "unit": "nM"},
      {"measurement": "GI50", "setting": "[6]", "value": 9.4, "unit": "nM"},
      {"measurement": "GI50", "setting": "MKN-45/Ubc-luc cells", "value": "> 2000", "unit": "nM"},
      {"measurement": "DC50", "setting": "[7]", "value": 0.3, "unit": "nM"}
    ]}
  ]
}
